Measurements from patent US11992009B2, “Pesticide-containing soil disinfestation material without use of fumigant” (priority 2020, dated 2024).

Assays:
[1] = Lab soil pesticide release testing; type: physicochemical; conditions: for Pesticide content of fumigant-free soil disinfestation materials after set time on Soil: HPLC, LoQ 0.25 g/ha
Procedure: 200 g of dry soil is placed in rectangular thin layer chromatography chamber of 27×7×26 cm with lid and 20 g water is added to the soil. A 58 cm^2 of a polymer composite material sample is placed on the humid soil and weight down by a glass plate with a contact pressure of […] to simulate similar contact conditions with the soil as in the field after application of the polymer composite material like a plastic mulch film. […]
After the set contact time with the soil the film sample is removed, moisture is dabbed off, loose dirt is brushed off and then the sample is dried at 60 C in an oven for 10 min. After drying the sample is cut into 100 small squares (each about 7.5 by 7.5 mm), placed in a small glass flask with 5 gram of Methanol and a magnetic stir bar. The flask is capped, stirred for 4 hours and the methanolic solution is then analyzed by HPLC. The difference between the initial and remaining amount of pesticide is released to the soil during the set time. The lowest concentration of analyte that can be determined with an acceptable repeatability and trueness by the method is 0.025 mg/m^2=0.25 g/ha Limit of quantitation (LoQ).

[2] = cited from earlier work
[3] = Example 1 material, 0 days (initial content)
[4] = Example 1 material, 7 days on humid soil
[5] = Example 1 material, 14 days on humid soil
[6] = Example 1 material, 21 days on humid soil
[7] = Example 2 material, 0 days (initial content)
[8] = Example 2 material, 7 days on humid soil
[9] = Example 2 material, 14 days on humid soil
[10] = Example 2 material, 21 days on humid soil
[11] = Example 5 material, 0 days (initial content)
[12] = Example 5 material, 7 days on humid soil
[13] = Example 5 material, 14 days on humid soil
[14] = Example 5 material, 21 days on humid soil
[15] = Example 4 material, 0 days (initial content)
[16] = Example 4 material, 7 days on humid soil
[17] = Example 4 material, 14 days on humid soil
[18] = Example 4 material, 21 days on humid soil
[19] = Example 3 material, 0 days (initial content)
[20] = Example 3 material, 7 days on humid soil
[21] = Example 3 material, 14 days on humid soil
[22] = Example 3 material, 21 days on humid soil

| SMILES | Pesticide content of fumigant-free soil disinfestation materials after set time on Soil [1, 3] [g/ha] | Pesticide content of fumigant-free soil disinfestation materials after set time on Soil [1, 4] [g/ha] | Pesticide content of fumigant-free soil disinfestation materials after set time on Soil [1, 5] [g/ha] | Pesticide content of fumigant-free soil disinfestation materials after set time on Soil [1, 6] [g/ha] | Pesticide content of fumigant-free soil disinfestation materials after set time on Soil [1, 7] [g/ha] | Pesticide content of fumigant-free soil disinfestation materials after set time on Soil [1, 8] [g/ha] | Pesticide content of fumigant-free soil disinfestation materials after set time on Soil [1, 9] [g/ha] | Pesticide content of fumigant-free soil disinfestation materials after set time on Soil [1, 10] [g/ha] | Pesticide content of fumigant-free soil disinfestation materials after set time on Soil [1, 15] [g/ha] | Pesticide content of fumigant-free soil disinfestation materials after set time on Soil [1, 16] [g/ha] | Pesticide content of fumigant-free soil disinfestation materials after set time on Soil [1, 17] [g/ha] | Pesticide content of fumigant-free soil disinfestation materials after set time on Soil [1, 18] [g/ha] | Pesticide content of fumigant-free soil disinfestation materials after set time on Soil [1, 19] [g/ha] | Pesticide content of fumigant-free soil disinfestation materials after set time on Soil [1, 20] [g/ha] | Pesticide content of fumigant-free soil disinfestation materials after set time on Soil [1, 21] [g/ha] | Pesticide content of fumigant-free soil disinfestation materials after set time on Soil [1, 22] [g/ha] | also measured |
| --- | --- | --- | --- | --- | --- | --- | --- | --- | --- | --- | --- | --- | --- | --- | --- | --- | --- |
| CO/C=C(/C(=O)OC)c1ccccc1Oc1cc(Oc2ccccc2C#N)ncn1 [Azoxystrobin] | 96 | 12 | 0 | 0 | 96 | 9 | 0 | 0 |  |  |  |  |  |  |  |  | Pesticide content of fumigant-free soil disinfestation materials after set time on Soil [1, 11]: 10 g/ha; Pesticide content of fumigant-free soil disinfestation materials after set time on Soil [1, 12]: 0 g/ha; Pesticide content of fumigant-free soil disinfestation materials after set time on Soil [1, 13]: 0 g/ha; Pesticide content of fumigant-free soil disinfestation materials after set time on Soil [1, 14]: 0 g/ha |
| N#Cc1c[nH]cc1-c1cccc2c1OC(F)(F)O2 [Fludioxonil] | 244 | 57 | 23 | 0 | 244 | 53 | 17 | 0 |  |  |  |  |  |  |  |  | Water solubility [2]: hardly water soluble; Release from coated film in lab release test (FIG. 3) ([1]; at 7, 14 and 21 days, before planting): complete release |
| O=S(=O)(CCC(F)=C(F)F)c1ncc(Cl)s1 [Fluensulfone] |  |  |  |  |  |  |  |  | 2807 | 0 | 0 | 0 |  |  |  |  |  |
| O=C(NCc1ncc(C(F)(F)F)cc1Cl)c1c(Cl)cccc1Cl [Fluopicolide] |  |  |  |  |  |  |  |  | 450 | 60 | 30 | 15 |  |  |  |  |  |
| O=C(NCCc1ncc(C(F)(F)F)cc1Cl)c1ccccc1C(F)(F)F [Fluopyram] |  |  |  |  |  |  |  |  |  |  |  |  | 91 | 0 | 0 | 0 | Pesticide content of fumigant-free soil disinfestation materials after set time on Soil [1, 11]: 350 g/ha; Pesticide content of fumigant-free soil disinfestation materials after set time on Soil [1, 12]: 14 g/ha; Pesticide content of fumigant-free soil disinfestation materials after set time on Soil [1, 13]: 0 g/ha; Pesticide content of fumigant-free soil disinfestation materials after set time on Soil [1, 14]: 0 g/ha |
| COC(=O)c1c(Cl)nn(C)c1S(=O)(=O)NC(=O)Nc1nc(OC)cc(OC)n1 [Halosulfuron-methyl] | 35 | 0 | 0 | 0 | 35 | 0 | 0 | 0 |  |  |  |  | 35 | 0 | 0 | 0 | Pesticide content of fumigant-free soil disinfestation materials after set time on Soil [1, 11]: 40 g/ha; Pesticide content of fumigant-free soil disinfestation materials after set time on Soil [1, 12]: 0 g/ha; Pesticide content of fumigant-free soil disinfestation materials after set time on Soil [1, 13]: 0 g/ha; Pesticide content of fumigant-free soil disinfestation materials after set time on Soil [1, 14]: 0 g/ha |
| COCC(=O)N(c1c(C)cccc1C)[C@H](C)C(=O)OC [Mefenoxam] |  |  |  |  |  |  |  |  | 281 | 19 | 0 | 0 |  |  |  |  |  |
| COCC(=O)N(c1c(C)cccc1C)C(C)C(=O)OC (stereo not shown) [Metalaxyl] | 936 | 12 | 1 | 0 | 936 | 15 | 0 | 0 |  |  |  |  |  |  |  |  |  |
| CSc1nnc(C(C)(C)C)c(=O)n1N [Metribuzin] |  |  |  |  |  |  |  |  | 375 | 0 | 0 | 0 |  |  |  |  |  |
| CNC(=O)O/N=C(\SC)C(=O)N(C)C [Oxamyl] | 1800 | 0 | 0 | 0 | 1800 | 0 | 0 | 0 |  |  |  |  |  |  |  |  |  |
| Cc1nn(-c2cc(NS(C)(=O)=O)c(Cl)cc2Cl)c(=O)n1C(F)F [Sulfentrazone] |  |  |  |  |  |  |  |  |  |  |  |  | 202 | 15 | 0 | 0 |  |
| CC(C)(C)C(O)(CCc1ccc(Cl)cc1)Cn1cncn1 (stereo not shown) [Tebuconazole] |  |  |  |  |  |  |  |  |  |  |  |  | 954 | 125 | 45 | 8 |  |
| CON=C(C(=O)OC)c1ccccc1CON=C(C)c1cccc(C(F)(F)F)c1 [Trifloxystrobin] |  |  |  |  |  |  |  |  |  |  |  |  | 238 | 65 | 35 | 3 |  |
| CCc1cccc(C)c1N(C(=O)CCl)[C@@H](C)COC [s-metolachlor] |  |  |  |  |  |  |  |  | 800 | 5 | 0 | 0 |  |  |  |  |  |
